Assay results from patent US20240270821A1, “GIP/GLP1/GCG TRI-RECEPTOR AGONISTS AND USES THEREOF” (priority 2023, published 2024).
Marks after values point to notes of the source that are not given here. Starred links: 1 amine or outer side, 2 acyl side, 3 side chain; linkers in the order of their positions; H or OH if unused. Non-standard residues stand in square brackets, D forms with d. Groups on a side chain read outwards from the residue. No end group written: not given here. *: point of attachment. C20 diacid = O=C(O)CCCCCCCCCCCCCCCCCCC(=O)*; Phe(4-CN) = N#Cc1ccc(C[C@H](N)C(=O)O)cc1; αMePhe(2-F) = C[C@](N)(Cc1ccccc1F)C(=O)O; γGlu = O=C(O)[C@H](CCC(=O)[*:2])N[*:1]; αMeL = CC(C)C[C@](C)(N)C(=O)O; AEEA = NCCOCCOCC(=O)O; Aib = CC(C)(N)C(=O)O

T1: hGIPR (Homo sapiens, UniProt P48546)
T1 sequence (P48546 22-466): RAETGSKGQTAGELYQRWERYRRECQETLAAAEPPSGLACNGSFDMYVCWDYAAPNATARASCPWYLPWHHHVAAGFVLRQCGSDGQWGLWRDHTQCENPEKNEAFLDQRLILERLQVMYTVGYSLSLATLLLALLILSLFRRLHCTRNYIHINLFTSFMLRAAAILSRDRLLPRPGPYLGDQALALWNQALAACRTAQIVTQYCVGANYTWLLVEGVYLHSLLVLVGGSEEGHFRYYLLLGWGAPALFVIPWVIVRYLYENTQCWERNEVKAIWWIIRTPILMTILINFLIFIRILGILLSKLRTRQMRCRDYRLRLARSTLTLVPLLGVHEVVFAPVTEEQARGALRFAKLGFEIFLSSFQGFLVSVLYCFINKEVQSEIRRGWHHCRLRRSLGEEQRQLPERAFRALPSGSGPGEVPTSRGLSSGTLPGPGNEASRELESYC

T2: human GIP receptor (hGIPR) (human) (UniProt P48546)
T2 sequence (looked up): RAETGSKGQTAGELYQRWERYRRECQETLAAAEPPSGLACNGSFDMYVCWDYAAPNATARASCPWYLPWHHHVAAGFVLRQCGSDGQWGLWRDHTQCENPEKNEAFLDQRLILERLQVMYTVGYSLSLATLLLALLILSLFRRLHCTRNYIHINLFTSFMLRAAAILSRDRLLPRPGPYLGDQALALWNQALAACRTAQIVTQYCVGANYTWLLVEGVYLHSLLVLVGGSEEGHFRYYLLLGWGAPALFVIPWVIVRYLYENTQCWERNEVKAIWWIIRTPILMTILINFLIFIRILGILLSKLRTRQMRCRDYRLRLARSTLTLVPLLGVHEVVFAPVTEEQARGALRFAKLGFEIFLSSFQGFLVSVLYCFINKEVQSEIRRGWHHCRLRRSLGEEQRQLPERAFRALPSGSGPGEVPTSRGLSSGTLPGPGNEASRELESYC

T3: human GIP receptor (human) (UniProt P48546)
T3 sequence (looked up): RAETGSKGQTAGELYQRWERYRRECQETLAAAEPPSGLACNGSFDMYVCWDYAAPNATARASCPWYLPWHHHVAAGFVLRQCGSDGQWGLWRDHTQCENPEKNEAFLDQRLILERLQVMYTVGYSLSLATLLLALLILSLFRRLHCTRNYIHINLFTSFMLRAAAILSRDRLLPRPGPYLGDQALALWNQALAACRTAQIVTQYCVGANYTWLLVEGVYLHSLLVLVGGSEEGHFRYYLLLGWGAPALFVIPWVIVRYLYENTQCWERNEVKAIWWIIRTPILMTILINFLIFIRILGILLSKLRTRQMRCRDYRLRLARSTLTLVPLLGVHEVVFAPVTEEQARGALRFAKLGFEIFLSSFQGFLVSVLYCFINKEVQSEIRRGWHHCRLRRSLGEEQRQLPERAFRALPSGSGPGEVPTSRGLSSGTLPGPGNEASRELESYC


How the values were obtained:
[1] = molecular target: T1, hGIPR; assay: Functional cAMP activity in the presence of 1% HSA; type: cell-based; conditions: read-out: cAMP Rel EC50, hGIPR
[2] = molecular target: T4, hGLP-1R (Homo sapiens, UniProt P43220); assay: Functional cAMP activity in the presence of 1% HSA; type: cell-based; conditions: read-out: cAMP Rel EC50, hGLP-1R
Target sequence in this assay (P43220 24-463): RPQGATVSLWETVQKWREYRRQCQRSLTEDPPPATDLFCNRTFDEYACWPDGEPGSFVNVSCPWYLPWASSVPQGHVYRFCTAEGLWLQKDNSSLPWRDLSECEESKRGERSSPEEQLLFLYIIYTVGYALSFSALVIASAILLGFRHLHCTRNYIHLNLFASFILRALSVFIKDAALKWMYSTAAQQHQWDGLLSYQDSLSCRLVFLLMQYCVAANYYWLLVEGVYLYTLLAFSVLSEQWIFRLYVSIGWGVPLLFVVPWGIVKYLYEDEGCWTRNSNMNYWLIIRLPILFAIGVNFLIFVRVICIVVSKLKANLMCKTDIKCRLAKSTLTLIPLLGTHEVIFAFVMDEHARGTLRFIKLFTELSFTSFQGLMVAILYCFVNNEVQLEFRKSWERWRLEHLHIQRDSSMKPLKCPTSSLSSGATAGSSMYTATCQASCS

[3] = molecular target: human GcgR (Homo sapiens, UniProt P47871); assay: Functional cAMP activity in the presence of 1% HSA; type: cell-based; conditions: read-out: cAMP Rel EC50, hGcgR
Sequence of human GcgR (P47871 26-477): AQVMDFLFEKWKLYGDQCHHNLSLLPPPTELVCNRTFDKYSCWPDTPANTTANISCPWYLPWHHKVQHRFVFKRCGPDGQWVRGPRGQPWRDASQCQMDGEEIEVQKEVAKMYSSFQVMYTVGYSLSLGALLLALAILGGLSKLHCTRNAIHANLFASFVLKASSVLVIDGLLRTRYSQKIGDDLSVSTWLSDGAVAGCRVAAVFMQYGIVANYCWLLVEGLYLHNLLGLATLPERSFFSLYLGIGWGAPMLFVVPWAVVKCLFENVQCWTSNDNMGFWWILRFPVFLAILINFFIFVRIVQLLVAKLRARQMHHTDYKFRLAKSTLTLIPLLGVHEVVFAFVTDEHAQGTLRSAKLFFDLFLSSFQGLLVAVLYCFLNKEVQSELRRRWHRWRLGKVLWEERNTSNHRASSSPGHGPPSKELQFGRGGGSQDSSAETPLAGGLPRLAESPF

[4] = molecular target: T1, hGIPR; assay: Functional cAMP activation in the presence of 0.1% casein (no HSA); type: cell-based; conditions: in the presence of 0.1% casein (no HSA); geometric mean; read-out: Relative cAMP EC50, hGIPR;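 on Relative cAMP EC50, hGIPR: intracellular cAMP rise after 30 min at 37 °C read by HTRF against a standard curve, scaled between buffer alone (0%) and top control ligand concentration (100%), four-parameter fit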;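 on Relative cAMP EC50, hGLP-1R: intracellular cAMP rise after 30 min at 37 °C read by HTRF, normalized between buffer only (0%) and maximal control ligand (100%), four-parameter variable-slope fit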;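 on Relative cAMP EC50, hGcgR: intracellular cAMP rise after 30 min at 37 °C, read by HTRF against a cAMP standard curve, scaled from buffer only (0%) to maximal control ligand response (100%)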
[5] = molecular target: T4, hGLP-1R; assay: as above; type: cell-based; conditions: in the presence of 0.1% casein (no HSA); geometric mean; read-out: Relative cAMP EC50, hGLP-1R
Target sequence in this assay (P43220 24-463): as the sequence (P43220 24-463) above

[6] = molecular target: hGcgR (Homo sapiens, UniProt P47871); assay: as above; type: cell-based; conditions: in the presence of 0.1% casein (no HSA); geometric mean; read-out: Relative cAMP EC50, hGcgR
Sequence of hGcgR (P47871 26-477): as the sequence (P47871 26-477) above

[7] = Pharmacokinetics in male Sprague Dawley rats, single subcutaneous administration; conditions: rat, in vivo, sc, 10 nmol/kg
[8] = Body weight in diet-induced obese C57BL/6 mice; type: in vivo; conditions: percent of starting weight, DIO mice, mean ± SEM n=5
Summary of the method: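 Male C57BL/6 DIO mice (41-50 g, 5 per group, randomized by weight) on calorie-rich diet received subcutaneous doses 30-90 min before dark onset, QD or Q3D for 9-16 days. Body weight measured daily, expressed as percent of starting weight, mean±SEM.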

[9] = molecular target: human GLP1-R (Homo sapiens, UniProt P43220); assay: GLP1-R internalization assay in HEK293 cells; type: cell-based; conditions: for EC50: HEK293 cells expressing SNAP-GLP-1R, read-out: GLP1R Internalization EC50; for Internalization % TOP: normalized to maximum concentration of GLP-1 (100%)
Sequence of human GLP1-R (P43220 24-463): as the sequence (P43220 24-463) above

[10] = molecular target: T4, hGLP-1R; assay: GLP-1R CHO cell β-arrestin recruitment assay; type: cell-based; parameters: host or cells: CHO-K1 (PathHunter, assay-ready frozen cells); conditions: for EC50: CHO-K1 PathHunter, β-arrestin-2, 0.1% casein, read-out: hGLP1R β-arrestin Rel EC50; for % Stimulation Max: normalized to GLP-1(7-36) as maximum control;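 on all read-outs here: luminescence read after 90 min peptide exposure at 37 °C and a further 60 min with detection reagent at room temperature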
Target sequence in this assay (P43220 24-463): as above
Target sequence in this assay (P32121 whole entry partner): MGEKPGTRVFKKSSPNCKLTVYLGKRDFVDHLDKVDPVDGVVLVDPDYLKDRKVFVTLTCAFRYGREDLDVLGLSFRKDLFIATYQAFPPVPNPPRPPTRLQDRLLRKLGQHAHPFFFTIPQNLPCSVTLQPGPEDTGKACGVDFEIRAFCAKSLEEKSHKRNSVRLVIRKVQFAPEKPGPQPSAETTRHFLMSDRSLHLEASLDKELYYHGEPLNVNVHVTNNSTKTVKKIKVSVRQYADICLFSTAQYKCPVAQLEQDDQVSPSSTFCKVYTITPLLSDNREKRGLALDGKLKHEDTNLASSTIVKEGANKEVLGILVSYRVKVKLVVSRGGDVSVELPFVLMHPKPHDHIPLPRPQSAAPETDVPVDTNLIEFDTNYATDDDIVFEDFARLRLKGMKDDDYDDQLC

[11] = molecular target: T4, hGLP-1R; assay: cell-based or functional assay
Target sequence in this assay (P43220 24-463): as the sequence (P43220 24-463) above

[12] = molecular target: T2, human GIP receptor (hGIPR) (human); assay: cell-based or functional assay
[13] = molecular target: T3, human GIP receptor (human); assay: cell-based or functional assay
[14] = molecular target: human GLP-1 receptor (hGLP-1R) (human) (UniProt P43220); assay: cell-based or functional assay
Sequence of human GLP-1 receptor (hGLP-1R) (human) (P43220 24-463): as above

[15] = molecular target: human glucagon receptor (hGcgR) (human) (UniProt P47871); assay: cell-based or functional assay
Sequence of human glucagon receptor (hGcgR) (human) (P47871 26-477): as the sequence (P47871 26-477) above

[16] = molecular target: human glucagon receptor (human) (UniProt P47871); assay: cell-based or functional assay
Sequence of human glucagon receptor (human) (P47871 26-477): as above

[17] = molecular target: human GLP-1R (SNAP-GLP-1R expressed in HEK293 cells) (human) (UniProt P43220); assay: cell-based or functional assay
Sequence of human GLP-1R (SNAP-GLP-1R expressed in HEK293 cells) (human) (P43220 24-463): as the sequence (P43220 24-463) above

| EC50 [1] | EC50 [2] | EC50 [3] | EC50 [4] | EC50 [5] | EC50 [6] | CL/F [7] | half-life [7] | EC50 [9] | Internalization % TOP [9] | EC50 [10] | % Stimulation Max [10] | cAMP Rel EC50, nM (presence of 1% HSA) [11] | Relative cAMP EC50 [12] | cAMP Rel EC50, nM (presence of 1% HSA) [13] | Relative cAMP EC50 [14] | Relative cAMP EC50 [15] | cAMP Rel EC50, nM (presence of 1% HSA) [16] | Molecule | Body weight (%) ([8]; 10 nmol/kg SC Q3D, 14 days) | further results |
| --- | --- | --- | --- | --- | --- | --- | --- | --- | --- | --- | --- | --- | --- | --- | --- | --- | --- | --- | --- | --- |
| 75.5 nM | 631 nM | 1630 nM | 0.207 nM | 1.65 nM | 4.29 nM | 0.143 mL/min/kg | 12.1 h | 49.5 nM | 66.8% | > 10000 nM | 12.3% |  |  |  |  |  |  | Y[Aib]QGTFTSDFSK[αMeL]LDKK([AEEA-γGlu-C20 diacid])AQ[Aib]AFIEYLLAGGPSSGEPPPSGE-NH2 [Example 2] | 77.90 +/− 1.90**** % |  |
| 13 nM | 110 nM | 836 nM | 0.0912 nM | 0.798 nM | 4.49 nM | 0.137 mL/min/kg | 26.2 h | 27.1 nM | 92.8% | 8.78 nM | 90.1% |  |  |  |  |  |  | H-Y[Aib]QGT[αMePhe(2-F)]TSD[Phe(4-CN)]SILLDKQAQK([AEEA-AEEA-γGlu-C20 diacid])AFIEYLLEGGPSSGEPPPSEG-NH2 [Example 321] | 87.14 +/− 0.59*** % |  |
| 105 nM | 139 nM | 1750 nM | 0.382 nM | 0.449 nM | 5.02 nM | 0.0645 mL/min/kg | 22.4 h | 10.9 nM | 86.5% | 5.96 nM | 47.5% |  |  |  |  |  |  | H-Y[Aib]QGTFTSDYSI[αMeL]LDKK([AEEA-γGlu-C20 diacid])AQRAFIEYLLEGGPSSGEPPPSEG-NH2 [Example 289] | 82.32 ± 1.25 % | Body weight (%) ([8]; 10 nmol/kg SC QD, 16 days): 60.94 ± 1.87 % |
|  |  |  |  |  |  |  |  |  |  |  |  | 67.3 nM | 0.0171 nM | 3.79 nM | 0.252 nM | 2.36 nM | 679 nM | YXQGTXTSDXSILLDKKAQXAFIEWLQEGGPSSGEPPPSGTEE (non-natural residues; lysine acylated with C18 diacid; C-terminal amide; synthetic construct; SITE 2: note = 2-Aminoisobutyric Acid; SITE 6: note = alpha-methyl-2-fluoro-L-phenylalanine; SITE 10: note = 3-(4-Pyridyl)-L-alanine; SITE 17: note = Lysine is chemically modified through conjugation of the epsilon-amino group of the Lysine side chain with (gamma-Glu)2-CO-(CH2)1) [Example 579] |  |  |
|  |  |  |  |  |  |  |  |  |  |  |  | 38 nM | 0.0547 nM | 3.48 nM | 0.478 nM | 3.94 nM | 295 nM | YXQGTXTSDXXILLDXKAQXXFIEYLIEGGPSSGEPPPSGTGE (synthetic construct; SITE 2: note = 2-Aminoisobutyric Acid; SITE 6: note = alpha-methyl-2-fluoro-L-phenylalanine; SITE 10: note = 3-(4-Pyridyl)-L-alanine; SITE 11: note = alpha-methyl-L-serine; SITE 16: note = L-ornithine; SITE 17: note = Lysine is chemically modified through conjugation of the epsi) [Example 548] |  | GLP1R Internalization EC50 [17]: 17.8 nM; Internalization % TOP [17]: 109% |
|  |  |  |  |  |  |  |  |  |  |  |  | 71 nM | 0.0692 nM | 12.3 nM | 0.542 nM | 6.32 nM | 1250 nM | YXQGTXTSDXSILLDXKAQXAFIEYLQEGGPSSGEPPPSGTEE (acylated lysine (γ-Glu)2 C18 diacid; non-natural residues; C-terminal amide; synthetic construct; SITE 2: note = 2-Aminoisobutyric Acid; SITE 6: note = alpha-methyl-2-fluoro-L-phenylalanine; SITE 10: note = 3-(4-Pyridyl)-L-alanine; SITE 16: note = L-ornithine; SITE 17: note = Lysine is chemically modified through conjugation of the epsilon-amino group of the Lysine side chai) [Example 583] |  |  |
